Counter-ions that a name gives are not always drawn.

Data set [1] relates to Mycoplasma smegmatis (S3264). Kind of data set: Antibacterial screening, Mycoplasma smegmatis, agar dilution assay. It is filed as cell-based. From the text: (§1) Antibacterial testing against Mycoplasma smegmatis (S3264) and Streptococcus pyogens (CN10) was done with slight modifications using standard agar dilution assays as outlined in Manual of Clinical Microbiology, Second Ed., E. H. Lennette, E. H. Spaulding and J. P. Truant Eds., American Society for Microbiology, Washington, DC, 1974.
In general terms: Agar dilution tests growth on a series of plates holding different concentrations.

For the next data set, the system named is Trichomonas vaginalis. Description: Antiprotozoal testing, Trichomonas vaginalis (in vitro). It is filed as cell-based. To be noted: Stenton or Modified Diamond's medium, read-out: Result (screen code, inhibition); for inhibition at 40 µg/mL: 40 mg/L. An excerpt: Antiprotozoal testing against Trichomonas vaginalis was done using methods outlined by R. M. Michaels in Advances in Chemotherapy, 3, 39-108 (1968).
(Stenton or Modified Diamond's medium)

The test system of data set [2] is Streptococcus pyogenes (CN10). Kind of data set: Antibacterial testing, Streptococcus pyogenes, agar dilution assay. It counts as cell-based.
From the text: as §1

The next data set in a line: LD50 Tests. To be noted: in vivo; IP single dose - CD1 Male Mouse. From the text: |(IP single dose - CD1 Male Mouse)
Data set [3] deals with Candida albicans (CN1863). Kind of data set: Antifungal screening, Candida albicans, broth and agar dilution assays. It is filed as cell-based. To be noted: Medium: Wellcotest sensitivity test agar plus 7% lysed horse blood. An excerpt:
Antifungal testing against Candida albicans (CN1863) was done with slight modifications using a combination of broth and agar dilution assays as outlined in Laboratory Handbook of Medical Mycology, Chapter 6, pages 441-446, M. R. McGinnis, Academic Press, New York, NY, 1980.
Medium: Wellcotest* sensitivity test agar plus 7% lysed horse blood.

In data set [4] the test system is Nippostrongylus brasiliensis (Immature - free living stages). Kind of data set: Anthelmintic screening, Nippostrongylus brasiliensis. It is filed as cell-based. From the text:
Anthelmintic testing against Nippostrongylus brasiliensis was done using methods as outlined in D. C. Jenkins, R. Armitage, and T. S. Carrington, Zetschrift fur Parasitenkunde 63, 261-269 (1980).

A further data set can be described thus: LD20 in the P388/0 test. It counts as in vivo, CD2-F1 mice. The arrangement: LD20: dose in mg/kg body weight. To be noted: intraperitoneal, days 1, 5, 9, doses are on a mg/kg basis; for MTD: mouse, in vivo, ip, read-out: highest nontoxic dose (LD20 column, values in parentheses; LD20 was not determined). On the procedure: CD2-F1 mice, of the same sex, weighing 20±3 g, are used for this test. Control and test animals are injected intraperitoneally with a suspension of ~10^6 viable P388/0 tumor cells on day 0. In each test, several dose levels which bracket the LD20 of the compound are evaluated; each dose level group contains 6 animals. The test compounds are prepared either in physiologic saline containing 0.05% Tween 80 or distilled water containing 5% dextrose and are administered intraperitoneally on days 1, 5, and 9 relative to tumor implant. Doses are on a mg/kg basis according to individual animals' body weights. The day of death for each animal is recorded, the median identified for each group and the ratios of median survival time for treated (T)/control (C) groups are calculated. The criterion for activity is T/C×100≥120%.

Another data set deals with Eimeria tenella. Description: Antiprotozoal screening, Eimeria tenella (in vitro). It counts as cell-based. To be noted: in vitro, read-out: Result (screen code, inhibition); for inhibition at 5 µg/mL: 5 mg/L. An excerpt:
Antiprotozoal testing against Eimeria tenella was done using methods outlined in V. S. Latter and D. Wilson, Parasitology 79, 169 (1979).

The subject of data set [5] is Brugia pahangi microfilaria. Kind of data set: Screening against Brugia pahangi microfilaria (in vitro). It is filed as cell-based. To be noted: for inhibition at 12.5 µg/mL: 12.5 mg/L. From the text:
Anthelmintic testing against Brugia pahangi was done using methods outlined in D. A. Denham et al., Transactions of the Royal Society of Tropical Medicine and Hygiene 73, 673-676 (1979).

A further data set has as its system Herpes simplex 1/vero. Kind of data set: Herpes simplex 1/vero plaque inhibition screen. It counts as cell-based. From the text: Antiviral testing against Herpes simplex 1/vero was done using plaque inhibition methods as outlined in P. Collins and D. J. Bauer, Proc. N.Y. Acad. Sci. 284, 49 (1977) and by plaque reduction methods as outlined in P. Collins and D. J. Bauer, J. Antimicrobiol Chemotherapy 3, Supplement A, 73, (1977). The column headings labeled Score, Toxicity, and Zone of Inhibition refer to the plaque inhibition screen while the IC50 heading to the plaque reduction screen.

Setting [6] is: read-out: Result (screen code, inhibition).

What is called MIC is the least concentration at which growth counts as inhibited. As a reminder, the inhibition is how much of the control response was suppressed. Broadly, the LD50 is the dose expected to kill half of the subjects tested. With `CCC(O)CNCc1ccc2ccc3cccc4ccc1c2c34` (stereo not drawn) [Example 9, 1-((1-Pyrenylmethyl)amino)-2-butanol hydrochloride], the MIC in data set [1] worked out at 10 µg/mL; in [2], 10 µg/mL; in data set [3], 10 µg/mL; in data set [4], 50 µg/mL. Also, in the data set on Trichomonas vaginalis, the inhibition at 40 µg/mL lay within 26 to 50%. In “LD50 Tests”, this molecule came in with an LD50 of 350 mg/kg.
In turn, `CC(C)(CO)NCc1ccc2ccc3cccc4ccc1c2c34` [Example 2B, 2-Methyl-2-((1-pyrenylmethyl)amino)propanol] registered an LD20 in the data set “LD20 in the P388/0 test” of 450.
On the same count and under the same terms, for `CCOCC(CO)(CO)NCc1ccc2ccc3cccc4ccc1c2c34` [Example 21C, 2-Ethoxymethyl-2-((1-pyrenylmethyl)amino)-1,3-propanediol hydrochloride 1/3H2 O] the value was 225.
In the case of `CC(O)CCNCc1ccc2ccc3cccc4ccc1c2c34` (stereo not drawn) [Example 14, 4-((1-Pyrenylmethyl)amino)-2-butanol hydrochloride], the MIC in data set [1] was 10 µg/mL; in data set [2], not above 5 µg/mL; in [3], 50 µg/mL; in data set [4], 50 µg/mL. Further, in the data set on Eimeria tenella (0.31 mg/L), the inhibition at 0.31 µg/mL lay in the range of 26 to 50%. The LD50 in the data set “LD50 Tests” stood at 130 mg/kg.
In “LD20 in the P388/0 test”, `C[C@H](O)[C@@](C)(CO)NCc1ccc2ccc3cccc4ccc1c2c34` (relative stereo) [Example 20G, (+-)(2R*,3S*)-2-((1-Pyrenylmethyl)amino)-2-methyl-1,3-butanediol hydrochloride] returned an LD20 of 125.
`CC(CO)NCc1ccc2ccc3cccc4ccc1c2c34` (stereo not drawn) [Example 7, 2-((1-Pyrenylmethyl)amino)propanol hydrochloride]: the figures for the MIC in [1] and in data set [3] were not above 5 µg/mL and 50 µg/mL, respectively. Also, the LD20 in the data set “LD20 in the P388/0 test” is 600.
Regarding `CC(C)(O)CNCc1ccc2ccc3cccc4ccc1c2c34` [Example 12, 2-(((1-Pyrenylmethyl)amino)methyl)-2-propanol hydrochloride], the MIC in data set [1] and in [3] was more than 50 µg/mL throughout. In addition, the inhibition at 12.5 µg/mL in data set [5] (setting [6]) lay in the range of 26 to 50%. For the same molecule, the inhibition at 5 µg/mL in the data set with Eimeria tenella lay in the range of 76 to 100%.
`OCCCNCc1ccc2ccc3cccc4ccc1c2c34` [Example 3, 3-((1-pyrenylmethyl)amino)propanol hydrochloride]: the MIC in [1] was less than 5 µg/mL; in data set [5] it was 0.78 µg/mL; in data set [2], 10 µg/mL; in data set [3], 30 µg/mL; in data set [4], 1 µg/mL. The inhibition at 0.78 µg/mL in [5] (0.78 mg/L, read-out: Result (screen code, inhibition)) lay in the range of 76 to 100%. Besides, the inhibition at 6.25 µg/mL in the data set with Trichomonas vaginalis (6.25 mg/L) was 76 to 100%. Moreover, in the data set “LD20 in the P388/0 test”, the LD20 worked out at 450.
As for `CC(CO)(CO)NCc1cc2cccc3ccc4cccc1c4c32` [Example 19, 2-methyl-2-((4-pyrenylmethyl)amino)-1,3-propanediol hydrochloride.1/4H2 O], the figures for the MIC in data set [1] and in data set [3] were 10 µg/mL and 30 µg/mL, respectively. In the data set “LD20 in the P388/0 test”, the LD20 is 45.
Regarding `CC(=O)OCC(COC(C)=O)(COC(C)=O)NCc1ccc2ccc3cccc4ccc1c2c34` [Example 15, 2-Acetoxymethyl-1,3,-O-diacetyl-2-((1-pyrenylmethyl)amino)-1,3-propanediol], the MIC in data set [1] is not above 10 µg/mL; in data set [3], more than 50 µg/mL. The MTD in “LD20 in the P388/0 test” was 500 mg/kg.
`CC(C)(CO)NCc1ccc2ccc3cccc4ccc1c2c34` [Example 2A, 2-methyl-2-((1-pyrenylmethyl)amino)propanol hydrochloride]: the MIC in [1] is not above 5 µg/mL; in data set [5], 3.1 µg/mL; in data set [2], 10 µg/mL; in data set [3] it was 10 µg/mL; in data set [4] it was 10 µg/mL. Moreover, in [5] (3.1 mg/L, read-out: Result (screen code, inhibition)), the inhibition at 3.1 µg/mL is 76 to 100%. In the data set with Trichomonas vaginalis, the inhibition at 40 µg/mL lay within 51 to 75%. For the same molecule, in the data set on Eimeria tenella, the inhibition at 5 µg/mL lay in the range of 26 to 50%. In addition, the LD20 in “LD20 in the P388/0 test” (hydrochloride) is reported as 170.
For the molecule `COCC(C)(CO)NCc1ccc2ccc3cccc4ccc1c2c34` (stereo not drawn) [Example 22D, 3-methoxy-2-methyl-2-((1-pyrenylmethyl)amino)-1-propanol methanesulfonate.1/3H2 O], the LD20 in the data set “LD20 in the P388/0 test” was determined as 135.
On to `CC(O)CNCc1ccc2ccc3cccc4ccc1c2c34` (stereo not drawn) [Example 8, 1-((1-pyrenylmethyl)amino)-2-propanol hydrochloride], for which the MIC turned out to be 10 µg/mL in data set [1] and 50 µg/mL in data set [3]. This molecule yielded an LD20 in the data set “LD20 in the P388/0 test” of 600.
As for `CC(C)C(CO)NCc1ccc2ccc3cccc4ccc1c2c34` (stereo not drawn) [Example 4, 3-Methyl-2-((1-pyrenylmethyl)amino)butanol hydrochloride], the inhibition at 12.5 µg/mL in data set [5] (setting [6]) fell in the range of 26 to 50%. Further, the LD20 in “LD20 in the P388/0 test” is 450. The molecule also returned an MIC in [4] of 10 µg/mL.
Take `CCC(COC(C)=O)(COC(C)=O)NCc1ccc2ccc3cccc4ccc1c2c34` [Example 16, 2-Ethyl-2-((1-pyrenylmethyl)amino)-1,3-propanediol diacetate]: in “LD20 in the P388/0 test”, the MTD came to 675 mg/kg. The Score with Herpes simplex 1/vero is on record as -4 (76-100% inhibition).
`CC(=O)OCC(C)(COC(C)=O)NCc1ccc2ccc3cccc4ccc1c2c34` [Example 18, 2-methyl-2-(1-pyrenylmethyl)amino)-1,3-propanediol diacetate] returned an MIC in data set [1] not above 10 µg/mL. Besides, inhibition of growth in data set [2] (MIC) required 30 µg/mL. The MTD in “LD20 in the P388/0 test” turned out to be 300 mg/kg. Besides, in the data set with Herpes simplex 1/vero, the Score was -3 (51-75% inhibition) and the “Zone of Inhibition” value is reported as 30.
As for `OCC(CO)NCc1ccc2ccc3cccc4ccc1c2c34` [Example 11, 2-((1-Pyrenylmethyl)amino)-1,3-propanediol hydrochloride], the minimal inhibitory concentration (MIC) is 10 µg/mL in [1], 5 µg/mL in data set [2], 50 µg/mL in data set [3] and not below 50 µg/mL in [4]. Also, in the data set on Trichomonas vaginalis, the inhibition at 40 µg/mL lay within 76 to 100%. Besides, in the data set on Eimeria tenella, the inhibition at 5 µg/mL was 76 to 100%. For the same molecule, in “LD20 in the P388/0 test”, the LD20 was 450. The molecule also displayed an LD50 in the data set “LD50 Tests” of 250 mg/kg.
On to `OCCNCc1ccc2ccc3cccc4ccc1c2c34` [Example 13, 2-((1-Pyrenylmethyl)amino)ethanol hydrochloride], for which the MIC in [1] was 5 µg/mL; in data set [2] it was 5 µg/mL; in data set [3], 10 µg/mL; in data set [4] it was 50 µg/mL. In the data set on Eimeria tenella, the inhibition at 5 µg/mL fell in the range of 26 to 50%. In the data set “LD20 in the P388/0 test”, the LD20 stood at 220. The molecule also gave an LD50 in the data set “LD50 Tests” of 160 mg/kg.
For the molecule `CCC(CO)NCc1ccc2ccc3cccc4ccc1c2c34` (stereo not drawn) [Example 6, 2-((1-Pyrenylmethyl)amino)butanol hydrochloride], the results for the MIC in data set [1] and in data set [3] were 10 µg/mL and 50 µg/mL, respectively. In the data set with Trichomonas vaginalis, the inhibition at 40 µg/mL is 76 to 100%. Also, in the data set “LD20 in the P388/0 test”, the LD20 came to 450. The molecule further registered an LD50 in the data set “LD50 Tests” of 350 mg/kg. In addition, the Score in the data set with Herpes simplex 1/vero is -2 (26-50% inhibition).
Turning to `O[C@@H]1CCC[C@H](O)[C@H]1NCc1ccc2ccc3cccc4ccc1c2c34` [Example 23B, (1α,2β,3α)-2-((1-Pyrenylmethyl)amino)-1,3-cyclohexanediolmethanesulfonate], the LD20 in the data set “LD20 in the P388/0 test” amounted to 180.

The values above are taken from patent publication US4820873A, “Pyrene derivatives” (priority 1984, dated 1989).
